Reference: US20240166627A1, “Terpyridinedione compound or salt thereof, and preparation method and application thereof” (SHENZHEN SALUBRIS PHARMACEUTICALS CO., LTD., priority 2021, published 2024)
Converted amounts (≈) assume the structure as drawn.

What was measured:
[1] = tested on: production of TNFα in U937; assay: Releasing TNFα from U937 induced by LPS; type: cell-based; details: Homo sapiens, U-937; PMA-differentiated U937, LPS 100 ng/ml, 4 h; read-out: IC50 value that the compound inhibits the production of TNFα
Text: Cytokine regulation in human monocytes has shown that the p38 pathway is the key to the biosynthesis of a plurality of pro-inflammatory cytokines including TNFα, IL-1β and IL-6. Therefore, the inhibition of the p38 MAPK pathway is to reduce inflammatory response by reducing the biosynthesis of the pro-inflammatory cytokines. […] This is a reflection of the effect of the compound in the present invention to facilitate reduction of inflammation, which is useful in the treatment of various diseases, including chronic inflammatory diseases, acute inflammatory diseases, or self-inflammatory diseases. The potency and efficacy of the p38 inhibitor in blocking cytokine production are evaluated using a human U937 cell line.
A 1640 medium with an article number being A10491-01, Gibco; penicillin-streptomycin with an article number being 15140-122, Gibco; fetal bovine serum with an article number being 10099-141C, Gibco; PBS with an article number being 10010-031, Gibco; LPS with an article number being L2880, Sigma; PMA with an article number being P1585, Sigma; dimethyl sulfoxide with an article number being D8418-1L, Sigma; and a TNFα kit with an article number being K151QWD-4, MSD.
A 96-well plate with an article number being 3599, Corning; a plate-vibrating device with an article number being QB-9002, QILINBEIER; a centrifuge with an article number being 5810R, Eppendorf; a carbon dioxide incubator with an article number being 371, Thermo; a counter with an article number being C10281, Gibco; a microscope with an article number being CKX41, OLYMPUS; and an MSD plate reader with an article number being 1201 MESO SECTOR 600, MSD.
U937, ATCC with an article number being CRL-1593.2.
About 2 mg of a drug is weighted; a mother solution is prepared to 10 mM (which is calculated by free alkali) by means of DMSO; and the mother solution is diluted 10-fold to 1 mM, and then is successively diluted 4-fold to 250 μM, 62.5 μM, 15.6 μM, 3.9 μM, 0.97 μM, 0.24 μM, and 0.061 μM. The above series of diluted DMSO drugs is diluted 20-fold as working solutions by using media.
At Day 0, 10000/well inoculation is performed, stimulation is performed for 48 h with 20 ng/ml of PMA, and culture is performed at 37° C., 5% CO2. • At Day 2, 1. Supernatant is removed from differentiated U937, cleaning is performed once with PBS, and 96 μl of the 1640 medium is added. • 2. 2 μl of the compound containing (DMSO with a final concentration being 0.1%), and culture is performed for 30 min at 37° C., 5% CO2. • 3. 2 μl of LPS (a final concentration being 100 ng/ml) is added, cells are stimulated, and culture is performed for 4 h at 37° C., 5% CO2. • 4. Centrifugation is performed, supernatant is taken, and content of TNFα in the supernatant is determined through ELISA.
The content of TNFα corresponding to each well is calculated by using a standard curve in the kit.
The compound IC50 is calculated by using a GraphPad nonlinear fitting formula, and for an experimental result, refer to Table 1.

[2] = Determination of solubility; type: physicochemical; details: aqueous buffer, thermodynamic from solid, 37° C. 1 h
Method: About 0.5 mg of a to-be-tested sample in a centrifuge tube is weighted, an appropriate amount of DMSO is added to completely dissolve the sample, and then methanol is added to make up to 1 ml.
(If there are more pH values to be investigated, the preparation method may be deduced by analogy).
3. The prepared control solution and test solution are simultaneously put into a 37° C. water bath and heated for 1 h, after 1 h, the solutions are taken out and cooled to room temperature, and then the solutions are filtered with a 0.22 μm filter membrane for sample injection.
4. The concentration of the sample in the test solution is calculated according to C=(A*(ms/vs))/AS, and experiment results are shown in Table 2.
Note: ms, vs and AS are the weight, volume and peak area of the sample in the control solution, respectively.
A is the peak area of the test solution.

[3] = Pharmacokinetic experiment in Beagle dogs (IV and PO); type: in vivo; details: male, dog, plasma
Text: Polyethylene glycol 400 (batch number: GORKREUT, Saen Chemical Technology (Shanghai) Co., Ltd.); DMSO (batch number: 20200319, GHTECH (Guangdong) Co., Ltd.); and normal saline (batch number: C20052604, Jiangxi Kelun Pharmaceutical Co., Ltd.). An LC-MS instrument (Thermo Fisher Ultimate 3000 UPLC, TSQ QUANTUM ULTRA TSQ Quantum GC).
5 male Beagle dogs with weights being 5 kg to 7 kg, purchased from Beijing Mars Biotechnology Co., Ltd. […]
After the above mixture is given to the dogs through intragastric administration (n=3) or intravenous administration (n=2), about 1 mL of blood is collected from the forelimb or hindlimb vein with a scalp needle, respectively, at 5 min (intravenous administration only), 15 min, 30 min, 1 h, 2 h, 4 h, 6 h, 8 h, 24 h to put into blood collection tubes containing EDTA-K2 anticoagulant; centrifugation is performed for 10 min at 4000 rpm to separate plasma; and then the tubes are stored at −80° C. for testing.
A certain amount of a test sample is accurately weighted and dissolved with DMSO to 2 mg/mL, as a stock solution. The stock solution is diluted to 30000, 10000, 3000, 1000, 300, 100, 50, 30, and 10 ng/mL by using acetonitrile:water (1:1), to obtain standard curve working solutions. 5 μL of the working solution is added to 45 μL of blank canine plasma; and well mixing is performed through vortex, to prepare into standard curve samples equivalent to plasma concentrations of 3000, 1000, 300, 100, 30, 10, 5, 3, and 1 ng/mL. 30 μL of the standard curve sample and the collected plasma sample (plasma collected at 5 min, 15 min, and 30 min of intravenous administration is diluted 5-fold) are added to 150 μL of a propranolol acetonitrile solution (internal standard, 50 ng/mL) to precipitate protein, then 100 μL of water is added to well mix through vortex; centrifugation is performed for 5 min at 4000 rpm; and supernatant is taken for LC-MS analysis. LC-MS detection conditions include the following.
Chromatographic column: Waters ACQUITY™ PREMIER HSS T3, 50*2.1 mm, 1.8 μm.
Mobile phase A: water (0.1% formic acid); mobile phase B: acetonitrile; flow rate: 0.5 mL/min; and gradient elution is shown in Table 3 below.
After LC-MS detection of blood drug concentration, and a non-compartment model of WinNonlin 6.1 software is adopted to calculate pharmacokinetic parameters of beagle dogs after administration.

p38β = p38β (Homo sapiens, UniProt Q15759); assay: p38β kinase screening experiment (ADP-Glo); type: biochemical; details: ATP 100 μM in the substrate/ATP mix, 60 min; read-out: IC50 value that the compound inhibits p38β
Method: A certain amount of the compound is weighed, prepared into a 10/50 mM mother solution with DMSO, diluted 3 folds with DMSO, and diluted to 10 concentration points as a compound working solution.
50 nL of the diluted compound working solution is transferred to each well of a reaction plate (784075, Greiner) with Echo 655, then 2.5 μL (2 ng/μL) of a p38β kinase solution is added; after 10 minutes at room temperature, 2.5 μL of a mixed solution of a kinase substrate (0.4 mg/mL) and ATP (100 μM) is added, for reaction for 60 min at room temperature; and 4 μL of an ADP Glo reagent is added, for incubation for 40 min at room temperature. 8 μL of a kinase detection reagent is added, for incubation for 40 min at room temperature; and finally a light-emitting signal is read on Envision 2104.

Chain of p38β (Q15759 whole entry): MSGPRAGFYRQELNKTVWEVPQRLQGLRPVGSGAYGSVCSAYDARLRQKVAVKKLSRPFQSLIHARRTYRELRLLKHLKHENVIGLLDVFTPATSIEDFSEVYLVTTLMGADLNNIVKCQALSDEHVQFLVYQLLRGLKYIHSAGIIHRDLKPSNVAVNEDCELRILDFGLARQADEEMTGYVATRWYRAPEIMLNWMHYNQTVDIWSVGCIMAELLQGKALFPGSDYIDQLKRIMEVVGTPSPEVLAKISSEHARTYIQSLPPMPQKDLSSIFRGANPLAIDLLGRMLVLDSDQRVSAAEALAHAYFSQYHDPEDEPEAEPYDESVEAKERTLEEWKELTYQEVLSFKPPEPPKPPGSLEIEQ

- IC50 [1]: 0.0104 µM
- solubility at 1 h ([2]; pH = 2.0, PBS buffer): 56.8 µg/mL (≈ 111 µM)
- solubility at 1 h ([2]; pH = 7.4, PBS buffer): 26.8 µg/mL (≈ 52.1 µM)
- AUC(0-t) ([3]; IV 1 mg/kg): 1530 ng·h/mL
- Cmax ([3]; IV 1 mg/kg): 657 ng/mL
- clearance ([3]; IV 1 mg/kg): 10.7 mL/min/kg
- AUC(0-t) ([3]; PO 5 mg/kg): 14400 ng·h/mL
- Cmax ([3]; PO 5 mg/kg): 2000 ng/mL
- bioavailability ([3]; PO 5 mg/kg vs IV 1 mg/kg): 189%
- IC50 (p38β): 5.97 µM
SMILES: Cc1cnc(-c2ccnc(C(C)(C)O)n2)cc1-n1c(C)cc(OCc2ncc(F)cc2F)c(Cl)c1=O (racemic) [Comparative example 1]
